Experimental findings from PMC11046306, “METTL17 is an Fe-S cluster checkpoint for mitochondrial translation” (Molecular cell, 2024) are described below.

For this experiment, the target named is T1, mS29 (Saccharomyces cerevisiae, UniProt Q01163).
T1 construct: gene RSM23; native subunit within the mitoribosomal small subunit purified from yeast mitochondria
Put plainly: cryo-EM structure of the SSU […] Å. Format: binding. As to conditions: within the mitoribosomal SSU; nucleotide pocket; reassigned from GDP.

As for `Nc1ncnc2c1ncn2[C@@H]1O[C@H](COP(=O)(O)OP(=O)(O)OP(=O)(O)O)[C@@H](O)[C@H]1O` [adenosine triphosphate], the “cryo-EM structure of the SSU 2.3 Å” value was “guanosine diphosphate (GDP) to adenosine triphosphate (ATP) in the nucleotide pocket of the protein mS29”.
